Laboratory results taken from patent US20240025906A1 (NEURON23, INC., priority 2022, published 2024).
Structures can show the parent of a compound that is named as a salt. Where two headings read alike, the source gives them in different places.

Tests used:
[1] = tested on: JAK1/TYK2 pSTAT5 (Tyr694/699) in THP-1 cell line; test: IFNa-stimulated JAK1/TYK2 pSTAT5 (Tyr694/699) inhibition cellular assay, AlphaLISA; type: cell-based; conditions: THP-1 cells, AlphaLISA (Assay B), read-out: Cellular_THP1_IFNa-pSTATS_TYK2
Method in brief: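 THP-1 cells (2e4/well) in HBSS preincubated 1 h at 37° C. with compound (final 10000–0.04 nM, 8 points, 6-fold), then stimulated with IFNa (100 ng/mL stock) for 30 min before lysis. pSTAT5 (Tyr694/699) read by AlphaLISA at 615 nm; IC50 from four-parameter logistic fit with bottom fixed at 0 and Hill slope at −1.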

TYK2 JH2 = target: T1, TYK2 JH2 (Homo sapiens, UniProt P29597); test: TYK2 JH2 binding assay (KINOMEscan KdELECT competitive binding); conditions: TYK2 JH2 domain, read-out: Biochemical TYK2_DiscoverX_JH2_BND_Kd
T1 construct: purchased DiscoverX (KINOMEscan KdELECT service); host or cells: E. coli BL21-derived (T7 phage display) or HEK-293
Method in brief: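 Beads carrying a biotinylated ligand were mixed with tagged JH2 kinase and compound (11 points, 3-fold steps, 0.9% DMSO) and shaken 1 h at room temperature. After washing, kinase was released with 0.5 μM untagged ligand over 30 min and measured by qPCR to derive Kd.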

[2] = DiscoverX KINOMEscan KdELECT (Assay A)
[3] = Homo sapiens, IFNa-stimulated pSTAT5 (Tyr694/699)
[4] = IFNa-stimulated pSTAT5 (Tyr694/699)

T1 sequence (P29597 589-875 limits assumed): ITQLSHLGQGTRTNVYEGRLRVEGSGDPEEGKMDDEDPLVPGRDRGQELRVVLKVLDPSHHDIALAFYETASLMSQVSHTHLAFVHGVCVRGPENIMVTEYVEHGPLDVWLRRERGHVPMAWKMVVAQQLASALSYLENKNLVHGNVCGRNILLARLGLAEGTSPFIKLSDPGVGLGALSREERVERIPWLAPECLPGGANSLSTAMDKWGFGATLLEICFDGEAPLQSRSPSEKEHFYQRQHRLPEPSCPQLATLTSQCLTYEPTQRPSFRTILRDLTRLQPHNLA

| IC50 ([1]; Homo sapiens, IFNa-stimulated) [nM] | Kd (TYK2 JH2; [2]) [nM] | Kd (TYK2 JH2; KINOMEscan KdELECT (Assay A)) [nM] | IC50 [1, 3] [nM] | IC50 [1, 4] [nM] | SMILES |
| --- | --- | --- | --- | --- | --- |
| ≤ 500 |  | ≤ 100 |  |  | CNc1ncc(C#Cc2ccc3c(c2)OC[C@H](COC)O3)c2cc(NC(=O)C3CC3)ncc12 (single isomer, unassigned) [Example 698] |
| ≤ 500 |  | ≤ 100 |  |  | CNc1ncc(C#Cc2ccc3c(c2)OC[C@@H](COC)O3)c2cc(NC(=O)C3CC3)ncc12 (single isomer, unassigned) [Example 699] |
| ≤ 500 |  | ≤ 100 |  |  | CNc1ncc(C#Cc2ccc(OC)cn2)c2cc(NC(=O)[C@H]3C[C@H]3C(F)F)ncc12 (single isomer, unassigned) [Example 745] |
| ≤ 500 |  | ≤ 100 |  |  | CNc1ncc(C#Cc2ccc(OC)cn2)c2cc(NC(=O)[C@@H]3C[C@@H]3C(F)(F)F)ncc12 (single isomer, unassigned) [Example 746] |
| ≤ 500 |  | ≤ 100 |  |  | CNc1ncc(C#Cc2ccc(OC)cn2)c2cc(NC(=O)[C@H]3C[C@H]3C(F)(F)F)ncc12 (single isomer, unassigned) [Example 747] |
| ≤ 500 |  | ≤ 100 |  |  | CNc1ncc(C#Cc2cc3ccccn3n2)c2cc(NC(=O)[C@@H]3C[C@@H]3C(F)F)ncc12 (single isomer, unassigned) [Example 754] |
| ≤ 500 |  | ≤ 100 |  |  | CNc1ncc(C#Cc2cc3ccccn3n2)c2cc(NC(=O)[C@H]3C[C@H]3C(F)F)ncc12 (single isomer, unassigned) [Example 755] |
| ≤ 500 |  | ≤ 100 |  |  | CNc1ncc(C#Cc2ccc(OCC(C)(C)O)cc2)c2cc(NC(=O)[C@@H]3C[C@@H]3C(F)F)ncc12 (single isomer, unassigned) [Example 756] |
| ≤ 500 |  | ≤ 100 |  |  | CNc1ncc(C#Cc2ccc(OCC(C)(C)O)cc2)c2cc(NC(=O)[C@H]3C[C@H]3C(F)F)ncc12 (single isomer, unassigned) [Example 757] |
| ≤ 500 |  | ≤ 100 |  |  | CNc1ncc(C#Cc2ccc(OC3CN(C(C)=O)C3)cc2)c2cc(NC(=O)[C@H]3C[C@H]3C(F)F)ncc12 (single isomer, unassigned) [Example 776] |
| ≤ 500 |  | ≤ 100 |  |  | CNc1ncc(C#Cc2ccc(OC3CN(C(C)=O)C3)cc2)c2cc(NC(=O)[C@@H]3C[C@@H]3C(F)F)ncc12 (single isomer, unassigned) [Example 777] |
| ≤ 500 |  | ≤ 100 |  |  | CNc1ncc(C#Cc2ccc(OC)cn2)c2cc(NC(=O)[C@H]3C[C@H]3CF)ncc12 (single isomer, unassigned) [Example 822] |
| ≤ 500 |  | ≤ 100 |  |  | CNc1ncc(C#Cc2ccc(OC)cn2)c2cc(NC(=O)[C@@H]3C[C@@H]3CF)ncc12 (single isomer, unassigned) [Example 823] |
| ≤ 500 |  | ≤ 100 |  |  | CNc1ncc(-c2nc3cc(N4CCO[C@H](C(F)F)C4)ccc3o2)c2cc(NC(=O)C3CC3)ncc12 (single isomer, unassigned) [Example 935] |
| ≤ 500 |  | ≤ 100 |  |  | CNc1ncc(-c2nc3cc(N4CCO[C@@H](C(F)F)C4)ccc3o2)c2cc(NC(=O)C3CC3)ncc12 (single isomer, unassigned) [Example 936] |
| ≤ 500 |  | ≤ 100 |  |  | CNc1ncc(C#Cc2ccc3c(c2)CC[C@H](CO)O3)c2cc(NC(=O)C3CC3)ncc12 (single isomer, unassigned) [Example 982] |
| ≤ 500 |  | ≤ 100 |  |  | CNc1ncc(C#Cc2ccc3c(c2)CC[C@@H](CO)O3)c2cc(NC(=O)C3CC3)ncc12 (single isomer, unassigned) [Example 983] |
| ≤ 500 |  | ≤ 100 |  |  | CNc1ncc(C#Cc2ccc3c(c2)CC[C@H](COC)O3)c2cc(NC(=O)C3CC3)ncc12 (single isomer, unassigned) [Example 988] |
| ≤ 500 |  | ≤ 100 |  |  | CNc1ncc(C#Cc2ccc3c(c2)CC[C@@H](COC)O3)c2cc(NC(=O)C3CC3)ncc12 (single isomer, unassigned) [Example 989] |
|  |  | ≤ 100 | ≤ 500 |  | CNc1ncc(-c2nc3cc(N4CCOCC4)ccc3o2)c2cc(NC(=O)[C@H]3C[C@H]3C(F)F)ncc12 (single isomer, unassigned) [Example 1064] |

More lines, now with the values behind:

| SMILES | IC50 ([1]; Homo sapiens, IFNa-stimulated) [nM] | Kd (TYK2 JH2; [2]) [nM] | Kd (TYK2 JH2; KINOMEscan KdELECT (Assay A)) [nM] | IC50 [1, 3] [nM] | IC50 [1, 4] [nM] |
| --- | --- | --- | --- | --- | --- |
| CC[C@@H]1C[C@H]1C(=O)Nc1cc2c(-c3nc4ccc(N5CCOCC5)cn4n3)cnc(NC)c2cn1 (single isomer, unassigned) [Example 586] | ≤ 500 | ≤ 100 |  |  |  |
| CNc1ncc(-c2nc3ccc(N4CCOCC4)cn3n2)c2cc(NC(=O)[C@@H]3CC34CC4)ncc12 (single isomer, unassigned) [Example 587, formate] | ≤ 500 | ≤ 100 |  |  |  |
| CNc1ncc(-c2nc3ccc(N4CCOCC4)cn3n2)c2cc(NC(=O)[C@H]3CC34CC4)ncc12 (single isomer, unassigned) [Example 588, formate] | ≤ 500 | ≤ 100 |  |  |  |
| CNc1ncc(/C=C/c2ccc3c(c2)OC[C@H](COC)O3)c2cc(NC(=O)C3CC3)ncc12 (single isomer, unassigned) [Example 790] | ≤ 500 |  | ≤ 100 |  |  |
| CNc1ncc(/C=C/c2ccc3c(c2)OC[C@@H](COC)O3)c2cc(NC(=O)C3CC3)ncc12 (single isomer, unassigned) [Example 791] | ≤ 500 |  | ≤ 100 |  |  |
| CNc1ncc(-c2nc3cc(N4CCO[C@H](COC)C4)ccc3o2)c2cc(NC(=O)C3CC3)ncc12 (single isomer, unassigned) [Example 919] | ≤ 500 |  | ≤ 100 |  |  |
| CNc1ncc(-c2nc3cc(N4CCO[C@@H](COC)C4)ccc3o2)c2cc(NC(=O)C3CC3)ncc12 (single isomer, unassigned) [Example 920] | ≤ 500 |  | ≤ 100 |  |  |
| CNc1ncc(-c2nc3cc(N4CCO[C@@H](C(F)(F)F)C4)ccc3o2)c2cc(NC(=O)C3CC3)ncc12 (single isomer, unassigned) [Example 922] | ≤ 500 |  | ≤ 100 |  |  |
| CNc1ncc(-c2nc3cc(N4CCO[C@H](C(F)(F)F)C4)ccc3o2)c2cc(NC(=O)C3CC3)ncc12 (single isomer, unassigned) [Example 923] | ≤ 500 |  | ≤ 100 |  |  |
| CNc1ncc(-c2nc3cc(N4CCO[C@@H](C(C)(C)O)C4)ccc3o2)c2cc(NC(=O)C3CC3)ncc12 (single isomer, unassigned) [Example 925] | ≤ 500 |  | ≤ 100 |  |  |
| CNc1ncc(-c2nc3cc(N4CCO[C@H](C(C)(C)O)C4)ccc3o2)c2cc(NC(=O)C3CC3)ncc12 (single isomer, unassigned) [Example 926] | ≤ 500 |  | ≤ 100 |  |  |
| CNc1ncc(-c2nc3cc(N4CC[C@@H](F)C4)ccc3o2)c2cc(NC(=O)C3CC3)ncc12 (single isomer, unassigned) [Example 944] | ≤ 500 |  | ≤ 100 |  |  |
| CNc1ncc(-c2nc3cc(N4CC[C@H](F)C4)ccc3o2)c2cc(NC(=O)C3CC3)ncc12 (single isomer, unassigned) [Example 945] | ≤ 500 |  | ≤ 100 |  |  |
| CNc1ncc(-c2nc3cc(C4(C)CCCO4)ccc3o2)c2cc(NC(=O)C3CC3)ncc12 (single isomer, unassigned) [Example 949] | ≤ 500 |  | ≤ 100 |  |  |
| CNc1ncc(-c2nc3ccc(N4CCOCC4)cn3n2)c2cc(NC(=O)[C@@H]3CC3(F)F)ncc12 (single isomer, unassigned) [Example 994] | ≤ 500 |  | ≤ 100 |  |  |
| CNc1ncc(-c2nc3ccc(N4CCOC(COC)C4)cn3n2)c2cc(NC(=O)C3CC3)ncc12 (single isomer, unassigned) [Example 1023] |  |  | ≤ 100 | ≤ 500 |  |
| CNc1ncc(-c2nc3ccc(N4CCOC(COC)C4)cn3n2)c2cc(NC(=O)C3CC3)ncc12 (single isomer, unassigned) [Example 1024] |  |  | ≤ 100 |  | ≤ 500 |
| CNc1ncc(-c2nc3ccc(N4CCO[C@@H]([C@H](C)O)C4)cn3n2)c2cc(NC(=O)C3CC3)ncc12 (single isomer, unassigned) [Example 1044] |  |  | ≤ 100 | ≤ 500 |  |
| CNc1ncc(-c2nc3ccc(N4CCO[C@H]([C@@H](C)O)C4)cn3n2)c2cc(NC(=O)C3CC3)ncc12 (single isomer, unassigned) [Example 1045] |  |  | ≤ 100 | ≤ 500 |  |
| CNc1ncc(-c2nc3ccc(N4CCO[C@@H]([C@@H](C)O)C4)cn3n2)c2cc(NC(=O)C3CC3)ncc12 (single isomer, unassigned) [Example 1046] |  |  | ≤ 100 | ≤ 500 |  |
| CNc1ncc(-c2nc3ccc(N4CCO[C@H]([C@H](C)O)C4)cn3n2)c2cc(NC(=O)C3CC3)ncc12 (single isomer, unassigned) [Example 1047] |  |  | ≤ 100 | ≤ 500 |  |
| CNc1ncc(-c2nc3ccc(N4CCOC(C(C)(C)F)C4)cn3n2)c2cc(NC(=O)C3CC3)ncc12 (single isomer, unassigned) [Example 1049] |  |  | ≤ 100 | ≤ 500 |  |
| CNc1ncc(-c2nc3ccc(N4CCOC(C(C)(C)F)C4)cn3n2)c2cc(NC(=O)C3CC3)ncc12 (single isomer, unassigned) [Example 1050] |  |  | ≤ 100 |  | ≤ 500 |
